# Results reported in patent US20140031296A1, “NEW SYNTHETIC PEPTIDES AND THEIR USE” (PERGAMUM AB, priority 2011, published 2014).
# What was measured:
# [1] = tested on: S. aureus (CCUG 1800); experiment: Minimal microbicidal concentration (MMC99) assay, S. aureus; type: cell-based; conditions: 2 hours; for MMC99 μM in 50% SWF: 50% heat inactivated simulated wound fluid
# Procedure: Antimicrobial Activity was Measured as Bactericidal Effect on S. aureus Using Minimal Microbicidal Concentration, MMC99, Assay)
# S. aureus (#1800; CCUG, Gothenburg, Sweden) cultured on blood-agar plates [Columbia agar (Oxoid, Basingstoke, UK) supplemented with 5% defibrinated horse blood (National Veterinary Institute (SVA), Uppsala, Sweden)] were transferred to brain heart infusion broth (3.7% BHI; Difco, BD Diagnostics, Franklin Lakes, N.J., USA) and incubated in a shaker at 250 rpm+37° C. over night. The culture was thereafter be diluted 1:10 in fresh BHI broth and incubated for additional two hours to reach log-phase growth. The bacteria were pelleted and suspended in 1% BHI medium (BHI broth diluted 100 times in ultra-pure water) to a concentration of 10^7 bacteria/ml as estimated by measuring optical density at 600 nm. Peptides were serially diluted by two-fold steps from 160 μM to 1.25 μM in 1% BHI medium. The peptides (100 μl) were thereafter incubated with bacteria (5 μl á 10^7 bact./ml) for 2 hours at +37° C. Drops (5 μl) of the suspension were placed on blood agar plates. The blood agar plates were incubated over night at +37° C. The MMC99 values, i.e. the lowest peptide concentration needed to achieve a 99% reduction of viable bacteria, were recorded (Table 3). The concentration of the bacterial suspension used in the assay was confirmed by viable counts on blood agar plates.
# S. aureus (#1800; CCUG, Gothenburg, Sweden) cultured on blood-agar plates [Columbia agar (Oxoid, Basingstoke, UK) supplemented with 5% defibrinated horse blood (National Veterinary Institute (SVA), Uppsala, Sweden)] were transferred to brain heart infusion broth (3.7% BHI; Difco, BD Diagnostics, Franklin Lakes, N.J., USA) and incubated in a shaker at 250 rpm+37° C. over night. The culture was thereafter be diluted 1:10 in fresh BHI broth and incubated for additional two hours to reach log-phase growth. The bacteria were pelleted and suspended in 1% BHI medium (BHI broth diluted 100 times in ultra-pure water) to a final concentration of 10^7 bacteria/ml as estimated by measuring optical density at 600 nm.
# Peptides were serially diluted by two-fold steps from 400 μM to 0.78 μM in either 1% BHI medium or in 50% heat inactivated simulated wound fluid [SWF, containing 1 part 0.1% peptone (Oxoid, Basingstoke, UK) in saline and 1 part fetal bovine serum, diluted 2 times in ultra-pure water].
# The peptides (100 μl) were thereafter incubated with bacteria (5 μl a 10^7 bact./ml) for 2 hours at +37° C. Drops (5 μl) of the suspension were placed on blood agar plates. The blood agar plates were incubated over night at +37° C. The MMC99 values, i.e. the lowest peptide concentration needed to achieve a 99% reduction of viable bacteria were recorded (Table 6). The concentration of the bacterial suspension used in the assay was confirmed by viable counts on blood agar plates.
# The antimicrobial effects of the peptides 232 (SEQ ID NO: 78), and 220 (SEQ ID NO:67) were analysed by MMC99 (minimal microbicidal concentration) assay against S. aureus (CCUG 1800), MRSA (CCUG 41879), P. aeruginosa (ATCC 15442), E. coli (CCUG 31246), S. pyogenes (CCUG 4207), P. acnes (CCUG 1794T), S. epidermidis (ATCC12228), K. pneumoniae (ATCC 13883), A. baumannii (ATCC 19606), and C. albicans (ATCC 64549). The peptides were purchased from Biopeptide Company (San Diego, Calif., USA) and Bachem AG (Bubendorf, Switzerland) and results are presented in Table 8A and 8B respectively.
# Peptides were serially diluted in two different assay medium, 1% BHI medium (brain-heart infusion medium) or 50% heat inactivated simulated wound fluid (SWF), and thereafter incubated with the microorganisms for 2 hours. Drops of the suspension were placed on blood agar plates. The MMC99 values, i.e. the lowest peptide concentration needed to achieve a 99% reduction of viable microorganisms, were recorded. As presented in Table 8, all the peptides have the ability to kill microorganisms frequently appearing in infections. […]
# [2] = tested on: TNF-α production in LPS stimulated THP-1 cells; experiment: Inhibition of TNF-α production in LPS stimulated THP-1 cells (ELISA); type: cell-based, human; conditions: mean relative secretion, basal = 0%; for TNF-α at 40 μM peptide: LPS-stimulated level without peptide = 100%; for TNF-α at 4 μM peptide / TNF-α at 10 μM peptide: stimulated = 100%
# Procedure: (§1) After 6 hours of incubation at +37° C., 5% CO2 and in a humid atmosphere, the cell supernatants were collected, centrifuged and kept frozen in −20° C. until analyzed for TNF-α content by ELISA (R&D Systems, Minneapolis, Minn., USA). The results are presented as mean relative secretion (%), with stimulated TNF-α level without peptide added set to 100% and basal secretion set to 0% (Table 2).
# as §1, with “incubation,” for “incubation at +37° C., 5% CO2 and in a humid atmosphere,”, “centrifuged,” for “centrifuged”, “5).” for “2).”
# [3] = screen 1, 99% reduction of viable bacteria
Sequence,"MMC99 μM in 1% BHI medium [1, 3]",TNF-α at 40 μM peptide ([2]; screen 1),TNF-α at 40 μM peptide ([2]; screen 2),further results
FQWKRAMRKVR [Peptide 122],20 µM,–,–,–
QSLATKLFQWRRNLRKVR [Peptide 121],10 µM,35%,–,–
CWLWRRAMRKVW [Peptide 230],–,–,80.4%,TNF-α at 4 μM peptide ([2]; screen 2): 119.2%; TNF-α at 10 μM peptide ([2]; screen 2): 135.6%; MMC99 μM in 1% BHI medium ([1]; screen 2): 25 µM; MMC99 μM in 50% SWF ([1]; screen 2): 100 µM
WFQWQRNMRKVR [Peptide 128],20 µM,104%,–,–
FQWQRNIRKVR [Peptide 136],>160 µM,96%,–,–
GRRRRSVQWCA [Peptide 223],–,–,104.4%,MMC99 μM in 1% BHI medium ([1]; screen 2): 25 µM
WRRWLRKMVKRL [Peptide 249],–,–,−0.7%,TNF-α at 4 μM peptide ([2]; screen 2): 91.2%; TNF-α at 10 μM peptide ([2]; screen 2): 78.0%; MMC99 μM in 1% BHI medium ([1]; screen 2): 12.5 µM; MMC99 μM in 50% SWF ([1]; screen 2): 6.25 µM
CFQWKRAMRKVR [Peptide 144],10 µM,140%,–,–
QSEATKRFQWLRNLRKVL [Peptide 119],20 µM,10%,–,–
QSEATKRFQWLRNLRKVL [Peptide 217],–,–,103.0%,–
RWCKLWRRLMRKVRRL [Peptide 239],–,–,–,TNF-α at 4 μM peptide ([2]; screen 2): 65.6%; TNF-α at 10 μM peptide ([2]; screen 2): 56.5%; MMC99 μM in 1% BHI medium ([1]; screen 2): 12.5 µM; MMC99 μM in 50% SWF ([1]; screen 2): 25 µM
CFLWRRLMRKLR [Peptide 228],–,–,53.6%,TNF-α at 4 μM peptide ([2]; screen 2): 106.6%; TNF-α at 10 μM peptide ([2]; screen 2): 95.4%; MMC99 μM in 1% BHI medium ([1]; screen 2): 12.5 µM; MMC99 μM in 50% SWF ([1]; screen 2): 50 µM
CFQWQRKMRKVR [Peptide 143],20 µM,153%,–,–
FQWQPRIRKVR [Peptide 138],>160 µM,172%,–,–
QSEAEKCFQWQRNMRKVR [Peptide 107],>160 µM,108%,–,–
CFQWQRNMRKVR [Peptide 149],13.3 µM,109%,–,–
WFKCFQWQRNMRKVR [Peptide 243],–,–,113.1%,–
FQWRPGIRKLR [Peptide 139],45 µM,148%,–,–
QSEATKCFLWRRNMRKVR [Peptide 225],–,–,111.6%,–

Sequence,"MMC99 μM in 1% BHI medium [1, 3]",TNF-α at 40 μM peptide ([2]; screen 1),TNF-α at 40 μM peptide ([2]; screen 2),further results
WFQWKRRMRKVR [Peptide 129],10 µM,91%,–,–
LVWIKRHIKKFK [Peptide 246],–,–,125.5%,–
TKCFLWRRNMRKVRG [Peptide 242],–,–,116.8%,–
QSLAEKLFQWLRNRRKVR [Peptide 120],10 µM,49%,–,–
PEATKCFQWQRNMRKVR [Peptide 108],>160 µM,127%,–,–
RLWRRLMRKVR [Peptide 238],–,–,76.5%,TNF-α at 4 μM peptide ([2]; screen 2): 83.9%; TNF-α at 10 μM peptide ([2]; screen 2): 89.2%; MMC99 μM in 1% BHI medium ([1]; screen 2): 12.5 µM; MMC99 μM in 50% SWF ([1]; screen 2): 100 µM
SQPEATKCFQWQRNMRKVR [Peptide 101],>160 µM,116%,–,–
LRLWRRLMRKVW [Peptide 231],–,–,49.8%,TNF-α at 4 μM peptide ([2]; screen 2): 102.6%; TNF-α at 10 μM peptide ([2]; screen 2): 89.1%; MMC99 μM in 1% BHI medium ([1]; screen 2): 12.5 µM; MMC99 μM in 50% SWF ([1]; screen 2): 50 µM
WCRWLRKMVKAL [Peptide 248],–,–,24.2%,TNF-α at 4 μM peptide ([2]; screen 2): 87.1%; TNF-α at 10 μM peptide ([2]; screen 2): 80.2%; MMC99 μM in 1% BHI medium ([1]; screen 2): 25 µM; MMC99 μM in 50% SWF ([1]; screen 2): 50 µM
LRTWRRLTRKVW [Peptide 234],–,–,102.0%,–
QSEYTKRYQWLRNLRKVL [Peptide 204],–,–,96.9%,–
CFLWRRNMRKVR [Peptide 227],–,–,111.0%,–
LRLWRRSMRKVW [Peptide 235],–,–,89.3%,–
QSEATKLFQWQRNLRKVR [Peptide 115],>160 µM,119%,–,–
FQWQRNMRKVR [Peptide 133],>160 µM,135%,–,–
RSLAQKLFQWLRNLRKVR [Peptide 219],–,–,7.3%,TNF-α at 4 μM peptide ([2]; screen 2): 68.5%; TNF-α at 10 μM peptide ([2]; screen 2): 44.0%; MMC99 μM in 1% BHI medium ([1]; screen 2): 6.25 µM; MMC99 μM in 50% SWF ([1]; screen 2): 12.5 µM
WCKLWRRLMRKVRR [Peptide 241],–,–,–,TNF-α at 4 μM peptide ([2]; screen 2): 92.7%; TNF-α at 10 μM peptide ([2]; screen 2): 57.9%; MMC99 μM in 1% BHI medium ([1]; screen 2): 12.5 µM; MMC99 μM in 50% SWF ([1]; screen 2): 25 µM
NSLFEKLAQWLRQLRKVR [Peptide 222],–,–,32.9%,TNF-α at 4 μM peptide ([2]; screen 2): 89.2%; TNF-α at 10 μM peptide ([2]; screen 2): 65.9%; MMC99 μM in 1% BHI medium ([1]; screen 2): 12.5 µM; MMC99 μM in 50% SWF ([1]; screen 2): 100 µM
QPEATKCFQWQRNMRKVR [Peptide 104],>160 µM,132%,–,–

Sequence,"MMC99 μM in 1% BHI medium [1, 3]",TNF-α at 40 μM peptide ([2]; screen 1),TNF-α at 40 μM peptide ([2]; screen 2),further results
QSAKTACFLWRRNMRKVR [Peptide 226],–,–,108.7%,–
QREARKFRQWLRNMTKVR [Peptide 203],–,–,98.1%,–
QESARKQFRWLRNLTKVL [Peptide 202],–,–,90.3%,–
WRRWLRKSVKRL [Peptide 247],–,–,88.2%,–
CFLWRRLMRKV [Peptide 237],–,–,89.2%,–
QSRATKRFQWLRNHRKVL [Peptide 208],–,–,130.2%,–
VWIVKKQVKRIK [Peptide 245],–,–,146.3%,–
CRLWRRRMRKVW [Peptide 233],–,–,90.7%,–
QSRATKRFQWHRNARKVL [Peptide 207],–,–,160.9%,–
QSLAEKLFWQLRNLRKVR [Peptide 221],–,–,94.4%,–
QREARKRFQWLRNMTKVR [Peptide 201],–,–,128.6%,–
GRRRRSVQWCA [Peptide 255],–,–,100.7%,–
LVKRLNRLWQFRKTAESQ [Peptide 216],–,–,121.9%,–
EATKCFQWQRNMRKVR [Peptide 158],–,91%,–,–
VSQSEATKRFQWLRNLRKVL [Peptide 214],–,–,88.8%,–
CFLWRRSMRRLR [Peptide 236],–,–,94.4%,–
QSAARTFKQWARNLRKTL [Peptide 210],–,–,101.0%,–
CRLWRRNMRKVR [Peptide 229],–,–,108.5%,–
